Data published in the CheMixHub viscosity set.

Experiment: xn = mol fraction of the nth substance listed

Nc1cccc(Cl)c1 + Cc1ccccc1Cl
viscosity [mPa·s], 100 kPa
Details | x1 = 0.0744 | x1 = 0.1659 | x1 = 0.2575 | x1 = 0.3522 | x1 = 0.4708 | x1 = 0.5714 | x1 = 0.6762 | x1 = 0.7838 | x1 = 0.8902
303.15 K | 1.146 | 1.462 | 1.777 | 2.1 | 2.502 | 2.84 | 3.191 | 3.548 | 3.898
308.15 K | 1.044 | 1.329 | 1.614 | 1.906 | 2.267 | 2.573 | 2.888 | 3.209 | 3.523
313.15 K | 0.9401 | 1.196 | 1.45 | 1.71 | 2.033 | 2.304 | 2.585 | 2.871 | 3.149
318.15 K | 0.8312 | 1.059 | 1.283 | 1.512 | 1.797 | 2.036 | 2.283 | 2.534 | 2.778

CC(=O)CCC(=O)O + O=C(O)[C@@H]1CCCN1
100 kPa, x1 = 0.667
Details | viscosity [mPa·s]
303.15 K | 955
308.15 K | 636.1
313.15 K | 432.5
318.15 K | 301
323.15 K | 219.6

CCCCCCCCCCCCCC[P+](CCCCCC)(CCCCCC)CCCCCC.c1c[n-]nn1 + COCCOCCOCCOCCOC
viscosity [mPa·s], 100 kPa
Details | 293.15 K | 298.15 K | 303.15 K | 308.15 K | 313.15 K | 318.15 K | 323.15 K
x1 = 0.499 | 80 | 65 | 53 | – | – | – | –
x1 = 0.602 | 118 | 93 | 74 | 62 | 51 | – | –
x1 = 0.69 | 172 | 134 | 106 | 85 | 69 | 57 | –
x1 = 0.793 | 250 | 190 | 147 | 116 | 93 | 76 | 63
x1 = 0.878 | 358 | 266 | 201 | 156 | 123 | 99 | 81
x1 = 0.917 | 400 | 294 | 221 | 170 | 133 | 106 | 86

CCCOC(=O)CC + CCCCCCCCCCCCCC
298.15 K, 101.33 kPa
Details | viscosity [mPa·s]
x2 = 0.0774 | 0.704
x2 = 0.1347 | 0.757
x2 = 0.2041 | 0.828
x2 = 0.2829 | 0.915
x2 = 0.3321 | 0.972
x2 = 0.4571 | 1.13
x2 = 0.5528 | 1.263
x2 = 0.6895 | 1.473
x2 = 0.8219 | 1.706
x2 = 0.9084 | 1.878

O=C(O)c1ccccc1O + CO
viscosity [mPa·s]
Details | 308.15 K | 313.15 K | 318.15 K | 323.15 K
101 kPa, x1 = 0.13 | 1.049 | – | – | 0.8273
101 kPa, x1 = 0.14 | 1.086 | – | – | 0.8572
101 kPa, x1 = 0.15 | 1.118 | – | – | 0.8818
101 kPa, x1 = 0.17 | 1.262 | – | – | 0.9692
101.33 kPa, x1 = 0.13 | 1.049 | 0.9732 | 0.8932 | 0.8273
101.33 kPa, x1 = 0.15 | 1.118 | 1.036 | 0.9552 | 0.8818

CC12CCC(CC1)C(C)(C)O2 + CCCCCC
298.15 K, 101.33 kPa
Details | viscosity [mPa·s]
x2 = 0.0339 | 2.317
x2 = 0.0677 | 2.11
x2 = 0.1616 | 1.642
x2 = 0.2491 | 1.325
x2 = 0.3454 | 1.063
x2 = 0.4734 | 0.8
x2 = 0.6205 | 0.593
x2 = 0.7181 | 0.491
x2 = 0.8281 | 0.4
x2 = 0.8953 | 0.359
x2 = 0.9363 | 0.33

CNN + O
293.15 K, 101.3 kPa
Details | viscosity [mPa·s]
x1 = 0.0514 | 1.53
x1 = 0.1003 | 2.35
x1 = 0.1615 | 3.54
x1 = 0.2017 | 4.51
x1 = 0.2563 | 5.58
x1 = 0.303 | 6
x1 = 0.3482 | 5.9
x1 = 0.4048 | 5.5
x1 = 0.4408 | 4.91
x1 = 0.5008 | 4.07
x1 = 0.6034 | 2.98
x1 = 0.6873 | 2.16
x1 = 0.8036 | 1.56
x1 = 0.8917 | 1.22

C1C[C@@H]2[C@H]3CC[C@H](C3)[C@@H]2C1 + CC(C)OC(C)C
viscosity [mPa·s], 101.33 kPa
Details | x2 = 0.1 | x2 = 0.2043 | x2 = 0.3168 | x2 = 0.4 | x2 = 0.4997 | x2 = 0.5937 | x2 = 0.703 | x2 = 0.8066 | x2 = 0.9085
293.15 K | 2.279 | 1.725 | 1.309 | 1.074 | 0.865 | 0.719 | 0.592 | 0.493 | 0.412
298.15 K | 2.062 | 1.572 | 1.206 | 0.995 | 0.802 | 0.666 | 0.556 | 0.473 | 0.391
303.15 K | 1.88 | 1.441 | 1.116 | 0.926 | 0.76 | 0.631 | 0.532 | 0.454 | 0.376
308.15 K | 1.712 | 1.324 | 1.026 | 0.861 | 0.706 | 0.593 | 0.497 | 0.426 | 0.357
313.15 K | 1.573 | 1.226 | 0.95 | 0.799 | 0.659 | 0.558 | 0.469 | 0.402 | 0.338

O=[N+]([O-])[O-].[Li+] + N
293.15 K, 101 kPa
Details | viscosity [mPa·s]
x1 = 0.026 | 0.168
x1 = 0.059 | 0.228
x1 = 0.096 | 0.32
x1 = 0.174 | 0.602

CCCCCCCCCCCCC + CCCCO
viscosity [mPa·s], 100 kPa
Details | x1 = 0.1001 | x1 = 0.2009 | x1 = 0.2975 | x1 = 0.3918 | x1 = 0.5054 | x1 = 0.6051 | x1 = 0.7 | x1 = 0.7984 | x1 = 0.8908
293.15 K | 2.584 | 2.319 | 2.148 | 2.004 | 1.901 | 1.841 | 1.807 | 1.788 | 1.829
298.15 K | 2.271 | 2.051 | 1.905 | 1.789 | 1.703 | 1.644 | 1.63 | 1.617 | 1.668
303.15 K | 2.006 | 1.821 | 1.701 | 1.606 | 1.535 | 1.489 | 1.48 | 1.469 | 1.522
308.15 K | 1.782 | 1.625 | 1.524 | 1.448 | 1.391 | 1.353 | 1.351 | 1.342 | 1.386
313.15 K | 1.591 | 1.459 | 1.374 | 1.312 | 1.268 | 1.246 | 1.239 | 1.231 | 1.265
318.15 K | 1.426 | 1.314 | 1.245 | 1.194 | 1.161 | 1.152 | 1.139 | 1.133 | 1.158
323.15 K | 1.283 | 1.19 | 1.132 | 1.092 | 1.066 | 1.059 | 1.052 | 1.048 | 1.068
